Starred links: 1 amine or outer side, 2 acyl side, 3 side chain; linkers in the order of their positions; H or OH if unused. Non-standard residues stand in square brackets, D forms with d. Residues, ends and D or L forms follow the SMILES beside them. ξ: configuration not given here. ξBip(2'-Et-4'-OMe) = CCc1cc(OC)ccc1-c1ccc(CC(N)C(=O)O)cc1; X6 = O=C(C(CCCc1ccc(Cl)cc1Cl)N[*:1])[*:2]; X10 = O=C(C(CCCc1ccc(F)cc1F)N[*:1])[*:2]; ξαMePhe(2-F) = CC(N)(Cc1ccccc1F)C(=O)O; ξhhPhe = NC(CCCc1ccccc1)C(=O)O; ξAbu(4-CN) = N#CCCC(N)C(=O)O; Ac5c = NC1(C(=O)O)CCCC1; Aib = CC(C)(N)C(=O)O
Tests used:
[1] = system: RIN5F (Rat Insulinoma) cells; assay: In vitro glucose-dependent insulin secretion (RIN5F cell assay screening protocol); format: cell-based; settings: 16.7 mM glucose load
Experimental: RIN5F (Rat Insulinoma) cells were cultured in RPMI 1640 medium supplemented with sodium pyruvate (1 mM) HEPES and Glucose (4.5 g/L) in a humidified incubator (5% CO2), at 37° C. After trypsinization, RIN5F cells were seeded at a concentration of 0.2×10^6 cells per well, in 12 well plates.
The buffer was replaced after 40 min. and the cells were incubated (37° C.) with the test peptidomimetics, at different concentration, for 30 min., both in the presence (16.7 mM) and absence (0 mM) of glucose load. The supernatant was collected and the insulin amount was measured by ultra sensitive Rat insulin ELISA kit (Crystal Chem, IL). The protein was estimated in the supernatant using Bicinchoninic Acid kit, according to the manufacturer's protocol (Sigma Aldrich, MO). The total insulin content obtained in Pico-gram (pg) was divided with the total protein (μg) in order to normalize for differences in cell density between wells.

human glucagon receptor = molecular target: T1, human glucagon receptor (Homo sapiens, UniProt P47871); assay: In vitro human glucagon antagonist activity (inhibition of cAMP production) in CHO/human glucagon R cells; format: cell-based; settings: with saturated concentration of glucagon peptide
T1 construct: The full-length cDNA was cloned in pcDNA3.1 (Invitrogen); expressed in transfected cells
T1 sequence (P47871 26-477): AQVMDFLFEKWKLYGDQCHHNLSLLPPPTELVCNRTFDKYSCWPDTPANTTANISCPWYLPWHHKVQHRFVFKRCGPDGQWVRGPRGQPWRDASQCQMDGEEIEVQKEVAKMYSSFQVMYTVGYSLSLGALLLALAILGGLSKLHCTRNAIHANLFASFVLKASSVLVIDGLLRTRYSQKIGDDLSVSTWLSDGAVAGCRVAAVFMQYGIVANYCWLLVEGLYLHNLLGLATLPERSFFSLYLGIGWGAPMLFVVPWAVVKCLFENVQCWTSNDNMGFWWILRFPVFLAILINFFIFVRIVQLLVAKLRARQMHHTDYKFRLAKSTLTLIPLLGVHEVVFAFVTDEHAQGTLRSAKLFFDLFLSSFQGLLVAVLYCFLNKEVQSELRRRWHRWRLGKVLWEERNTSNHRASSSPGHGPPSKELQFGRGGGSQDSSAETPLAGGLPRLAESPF
Experimental: The CHO-K1 cells (CRL 9618) were obtained from American Type Culture Collection (Rockville, Md.). CHO cells were grown in Ham's F12 medium containing L-Glutamine (2 mM), HEPES (25 mM), NaHCO3 (1.1 g/L) and supplemented with newborn Calf Serum (NBCS; 10%), Penicillin (50 U/ml (v/v)) and Streptomycin (50 ug/ml (v/v)). Cells were split every 3 days 1:8.
The full-length cDNA was cloned in pcDNA3.1 (Invitrogen). […] Clones expressing the receptor were generated by G418 (800 μg/ml active, Sigma) selection. The stable clones were thereafter maintained at 500 ug/ml (G418). The selected clone was used between passages 9-25 for cAMP assays.
The cells were trypsinized using 2 ml of TPVG (0.25% trypsin, 0.53 mM EDTA, 1.38-mM glucose). The trypsin was inactivated using Ham's F12 medium containing 10% NBCS and the cells were suspended in 2 ml of complete medium. […] The medium was aspirated off from the 12 well plate and the cells were washed once using Ham's F12 (plain). The cells were incubated at 37° C. with 500 ul of Ham's F12+1% BSA+0.125 mM RO-20 for 30 min. […] After the incubation, the medium was removed and cells were washed once with plain Ham's F12. Subsequently, the cells were lysed by adding 500 ul of ice cold 0.1 N HCl to each well and shaking for 30 minutes at 200 rpm. The cells were then scrapped, the lysate was collected in micro centrifuge tubes and centrifuged at 12000 rpm for 10 min to remove the debris. 300 ul of supernatant from each micro-centrifuge tube was then removed into a glass tube and dried under N2 for 30 min, for cAMP estimation. The total cAMP was estimated from the sample according to the manufacturer's protocol using Cyclic AMP immunoassay kit (R&D systems, Minneapolis. MN). The remaining supernatant is used to determine the protein concentration using micro BCA (Sigma). Data is calculated as percent of control (Vehicle: water) and expressed as Mean+SD.

Structure (SMILES)	Insulin secretion ([1]; 0.1 nM test compd.)	Insulin secretion ([1]; 1 nM test compd.)	Insulin secretion ([1]; 10 nM test compd.)	Human Glucagon receptor antagonistic activity shown as inhibition of cAMP production of Glucagon peptide (human glucagon receptor; 1 nM test compound)	Human Glucagon receptor antagonistic activity shown as inhibition of cAMP production of Glucagon peptide (human glucagon receptor; 10 nM test compound)	Human Glucagon receptor antagonistic activity shown as inhibition of cAMP production of Glucagon peptide (human glucagon receptor; 100 nM test compound)	Human Glucagon receptor antagonistic activity shown as inhibition of cAMP production of Glucagon peptide (human glucagon receptor; 1 μM test compound)	Human Glucagon receptor antagonistic activity shown as inhibition of cAMP production of Glucagon peptide (human glucagon receptor; 10 μM test compound)
CCc1cc(OC)ccc1-c1ccc(CC(NC(=O)[C@H](CC(=O)O)NC(=O)[C@H](CO)NC(=O)[C@@H](NC(=O)C(C)(Cc2ccccc2F)NC(=O)[C@@H](NC(=O)CNC(=O)[C@H](CCC(N)=O)NC(=O)C(C)(C)NC(=O)[C@@H](N)Cc2c[nH]cn2)[C@@H](C)O)[C@@H](C)O)C(=O)NC(CCCc2ccc(Cl)cc2C)C(N)=O)cc1 (single isomer, unassigned) [compound 40]	12.6 ± 0.20 pg/µg/h	15.9 ± 0.31 pg/µg/h	28.4 ± 0.11 pg/µg/h	18 ± 0.07 pmol/ml/μg prt	16 ± 0.01 pmol/ml/μg prt	12 ± 0.03 pmol/ml/μg prt	8 ± 0.02 pmol/ml/μg prt	6 ± 0.08 pmol/ml/μg prt
CCc1cc(OC)ccc1-c1ccc(CC(NC(=O)[C@H](CC(=O)O)NC(=O)[C@H](CO)NC(=O)[C@@H](NC(=O)C(C)(Cc2ccccc2F)NC(=O)[C@@H](NC(=O)CNC(=O)[C@H](CC(C(F)(F)F)C(F)(F)F)NC(=O)C(C)(C)NC(=O)[C@@H](N)Cc2c[nH]cn2)[C@@H](C)O)[C@@H](C)O)C(=O)NC(CCCc2ccc(Cl)cc2C)C(N)=O)cc1 (single isomer, unassigned) [compound 237]	12.0 ± 0.14 pg/µg/h	14.3 ± 0.12 pg/µg/h	27.8 ± 0.32 pg/µg/h	21 ± 0.11 pmol/ml/μg prt	19 ± 0.02 pmol/ml/μg prt	18 ± 0.07 pmol/ml/μg prt	18 ± 0.03 pmol/ml/μg prt	16 ± 0.02 pmol/ml/μg prt
CCc1cc(OC)ccc1-c1ccc(CC(NC(=O)[C@H](CC(=O)O)NC(=O)[C@H](CO)NC(=O)[C@@H](NC(=O)C(C)(Cc2ccccc2F)NC(=O)[C@@H](NC(=O)CNC(=O)[C@H](CCC(N)=O)NC(=O)C(C)(C)NC(=O)[C@@H](N)Cc2c[nH]cn2)[C@@H](C)O)[C@@H](C)O)C(=O)NC(CCCc2ccc(F)cc2F)C(N)=O)cc1 (stereo partly shown) [compound 86] (H-H[Aib]QGT[ξαMePhe(2-F)]TSD[ξBip(2'-Et-4'-OMe)][X10]-NH2)	12.3 ± 0.33 pg/µg/h	14.8 ± 0.16 pg/µg/h	28.1 ± 0.22 pg/µg/h					
CCc1cc(OC)ccc1-c1ccc(CC(NC(=O)[C@H](CC(=O)O)NC(=O)[C@H](CO)NC(=O)[C@@H](NC(=O)C(C)(Cc2ccccc2F)NC(=O)[C@@H](NC(=O)CNC(=O)[C@H](CCC(N)=O)NC(=O)C(C)(C)NC(=O)[C@H](Cc2c[nH]cn2)NC(C)=O)[C@H](C)O)[C@H](C)O)C(=O)NC(CCCc2ccccc2)C(N)=O)cc1 (single isomer, unassigned) [compound 101]	12.4 ± 0.22 pg/µg/h	15.2 ± 0.32 pg/µg/h	29.6 ± 0.50 pg/µg/h					
CCc1cc(OC)ccc1-c1ccc(CC(NC(=O)[C@H](CC(=O)O)NC(=O)[C@H](CO)NC(=O)[C@@H](NC(=O)[C@H](Cc2ccccc2)NC(=O)[C@@H](NC(=O)CNC(=O)[C@H](CCC(N)=O)NC(=O)C2(NC(=O)[C@@H](N)Cc3c[nH]cn3)CCCC2)[C@@H](C)O)[C@@H](C)O)C(=O)NC(CCCc2ccccc2)C(N)=O)cc1 (stereo partly shown) [compound 25] (H-H[Ac5c]QGTFTSD[ξBip(2'-Et-4'-OMe)][ξhhPhe]-NH2)	15.6 ± 0.30 pg/µg/h	21.8 ± 0.11 pg/µg/h	35.6 ± 0.20 pg/µg/h					
CCc1cc(OC)ccc1-c1ccc(CC(NC(=O)[C@H](CC(=O)O)NC(=O)[C@H](CO)NC(=O)[C@@H](NC(=O)[C@H](Cc2ccccc2)NC(=O)[C@@H](NC(=O)CNC(=O)C(CCC#N)NC(=O)C(C)(C)NC(=O)[C@@H](N)Cc2c[nH]cn2)[C@@H](C)O)[C@@H](C)O)C(=O)NC(CCCc2ccc(Cl)cc2Cl)C(N)=O)cc1 (stereo partly shown) [compound 83] (H-H[Aib][ξAbu(4-CN)]GTFTSD[ξBip(2'-Et-4'-OMe)][X6]-NH2)	12.3 ± 0.33 pg/µg/h	14.1 ± 0.36 pg/µg/h	28.0 ± 0.16 pg/µg/h					

Source: US8883963B2 (Cadila Healthcare Limited, priority 2007, dated 2014)
